Laboratory results taken from patent US8624034B2, “Fluoro-pyridinone derivatives useful as antibacterial agents” (Pfizer Inc., priority 2011, dated 2014).
pIC50: −log10 of the molar value. ≈ marks a conversion by molar mass, not a printed value.

Key:
[1] = system: Acinetobacter baumannii/haemolyticus, multidrug-resistant clinical isolate (AB-3167); assay: MIC determination, AB-3167; format: cell-based; conditions: Table 2, lower of duplicate values
Outline: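 Broth dilution MIC per CLSI M7-A8, 2-fold drug series, overnight incubation, lowest concentration visibly inhibiting growth against drug-free control. Run in duplicate, lower value reported; duplicates differing >2-fold repeated; QC strains and reference compounds required in range.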

[2] = molecular target: T1, Pseudomonas aeruginosa LpxC enzyme (Pseudomonas aeruginosa, UniProt P47205); assay: IC50 assay, LpxC enzyme from P. aeruginosa (PA LpxC enzyme IC50); format: biochemical; conditions: Table 2; LpxC enzyme 0.1 nM, 25° C., 1 hour; read-out: PA:IC50
T1 construct: made in house; host or cells: E. coli
T1 sequence (P47205 1-303): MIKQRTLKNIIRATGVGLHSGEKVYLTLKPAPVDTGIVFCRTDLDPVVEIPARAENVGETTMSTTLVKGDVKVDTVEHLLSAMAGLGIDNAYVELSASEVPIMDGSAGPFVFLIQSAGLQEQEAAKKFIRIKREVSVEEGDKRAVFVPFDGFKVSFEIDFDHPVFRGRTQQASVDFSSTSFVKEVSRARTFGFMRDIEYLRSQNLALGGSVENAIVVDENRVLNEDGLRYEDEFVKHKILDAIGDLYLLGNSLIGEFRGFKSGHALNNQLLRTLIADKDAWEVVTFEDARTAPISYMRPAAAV
Outline: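 The LpxC reaction ran 1 hour and was stopped with HCl. Substrate-to-product conversion was measured by RapidFire mass spectrometry, and IC50 values were calculated from percent conversion relative to a no-enzyme control.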

[3] = system: Pseudomonas aeruginosa UI-18: wild-type (PA-7); assay: MIC determination, PA-7; format: cell-based; conditions: Table 2, lower of duplicate values
Outline: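 P. aeruginosa UI-18 (wild-type) tested by CLSI broth dilution (M7-A8), 2-fold compound series incubated overnight. MIC read visually as lowest concentration preventing growth versus drug-free control; duplicates within 2-fold, lower value reported, with QC organisms and reference compounds in range.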

[4] = system: Escherichia coli EC-1: VOGEL, mouse virulent; assay: MIC determination, EC-1; format: cell-based; conditions: Escherichia coli, read-out: EC-1 (MIC), Table 2, lower of duplicate values
Outline: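 MIC against mouse-virulent E. coli EC-1 (VOGEL) was determined by CLSI M7-A8 broth dilution with 2-fold drug increments and overnight incubation. The MIC is the lowest concentration with no visible growth versus drug-free control. Tests were run in duplicate and the lower value reported if within 2-fold, with QC organisms and reference drugs in each run.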

Work on `Cc1ccc(-c2cc(=O)n(CC[C@](C)(C(=O)NO)S(C)(=O)=O)cc2F)cc1` [Example 29, (2R)-4-[5-Fluoro-4-(4-methylphenyl)-2-oxopyridin-1(2H)-yl]-N-hydroxy-2-methyl-2-(methylsulfonyl)butanamide] yielded an MIC [1] of over 64 µg/mL, a pIC50 [2] of 9.29 and an MIC [3] of 0.5 µg/mL (≈ 1.26 µM). For the same compound, the MIC [4] was 0.5 µg/mL (≈ 1.26 µM).
